Assay results from patent publication US6579851B2, “Effects of glucagon-like peptide-1 (7-36) on antro-pyloro-duodenal motility” (Amylin Pharmaceuticals, Inc., priority 2000, dated 2003).
Marks after values point to notes of the source that are not given here.

Legend:
Format in all cases: in vivo, human
[1] = Plasma glucagon immunoreactivity during intravenous GLP-1 infusion
Procedure: (§1) All values were expressed as mean±SEM. […] Differences were considered significant at P<0.05.
(§2) All studies were performed after an overnight fast.
(§3) The plasma was stored at −20° C. until assayed.

[2] = test system: pyloric motility; test: Pyloric motility (IPPW, pyloric tone) and duodenal phase III by perfusion manometry; conditions: for Volunteers with duodenal phase III: within 10 min after GLP-1 infusion; for Pyloric Motility IPPW: actual values; for Pyloric tone: values over basal
Procedure: (§4) Inhibition of antro-duodenal activity is assessed directly by motility recordings using methods that are well known to the skilled artisan. Contractile events are analyzed with a computer and validated software (Katschinski et al., Gastroenterol. 103, 383-91 (1992)) and only peaks with amplitudes of at least 10 mmHg and a duration of at least 2 s are considered true contractions. Duodenal phase III is defined as the occurrence of regular contractions at a frequency of ≧10/min for at least 2 min in the duodenum propagated aborally.
As used herein, “inhibition” of antro-pyloro-duodenal motility is defined as a reduction in the motility index. Other methods for measuring motility can be used. One of skill in the art will appreciate that a significant inhibition, including total inhibition, of motility will be useful.
The present invention also relates to therapeutic methods associated with stimulating pyloric motility. Two parameters used to describe pyloric motility are: 1) Isolated pyloric pressure waves (IPPW), defined as contractions registered by the sleeve with or without simultaneous contractions in maximally one sleeve-side-hole in the absence of associated (±3 sec) waves of any amplitude in the adjacent antral and duodenal side-holes and 2) pyloric tone. Pyloric tone is measured by deducting the basal pressure recorded by the antral side hole at the proximal end of the sleeve, from the basal pressure recorded by the sleeve. Basal pressures is defined as the mean pressure after excluding contractions; it is obtained each minute and used to calculate mean pyloric tone.
as §1, §2
(§5) Perfusion manometry was recorded using a nine-lumen duodenal sleeve/side-hole catheter (Dentsleeve, South Australia, Australia). The manometric assembly incorporated a 4.5 cm long sleeve sensor, two antral side-holes (2 cm apart), and three duodenal side-holes (2 cm apart), beginning at the proximal and distal end of the sleeve, respectively. Two more side-holes were positioned across the sleeve spaced 1.5 cm apart. An additional lumen located 12 cm distal to the sleeve sensor was used for duodenal perfusion.
(§6) The correct position of the duodenal probe with the sleeve array straddling the pylorus was fluoroscopically checked before start of each experiment, and monitored throughout each study by measuring the transmucosal potential difference at the distal antral and the proximal duodenal port, as previously described (Schirra et al. J Clin Invest 97, 92-103 (1996)). A difference of at least −15 mV indicated correct transpyloric position of the tube.
(§7) The motility channels were perfused at a rate of 0.3 ml/min using a low-compliance pneumohydraulic pump (Arndorfer Medical Specialists, Greendale, Wis.). Pressures were measured by external transducers. Data were simultaneously recorded on the screen of a multichannel chart system (PC Polygraph, Synectics Medical, Stockholm, Sweden) and stored in the memory of a personal computer. Data were sampled and digitized at 8 Hz followed by digital smoothing by a factor of 2.

[3] = Plasma glucose during intravenous GLP-1 infusion (glucose oxidase method); conditions: for Nadir of plasma glucose: at 20 min
Procedure: as §1, §2, §3

[4] = test system: antro-duodenal motility; test: Antro-duodenal motility by perfusion manometry; conditions: for Duodenal Motility Contractions: sum of three duodenal side holes; for Antral Motility Contractions: sum of two antral side holes
Procedure: as §4
In one embodiment, the data are analyzed in 10-min segments separately for antrum and duodenum by summarizing (frequency, motility index) or averaging (amplitude) the values derived from, the two antral and three duodenal side holes, respectively. Motility indexes are identified as the area under the contractions and are expressed in mmHg·s·min^−1. Antral contractions are determined to be antro-pyloro-duodenally propagated waves if the onset of the pressure wave recorded in the most proximal duodenal side hole, occurs within 5 sec after the onset of a pressure wave recorded in one of the antral side holes and if both wave are registered by all side holes in between.
as §2, §5, §6, §7

[5] = Plasma insulin during intravenous GLP-1 infusion (immunoassay)
Procedure: as §1, §2, §3

[6] = Plasma pancreatic polypeptide immunoreactivity during intravenous GLP-1 infusion
Procedure: as §1, §2, §3

[7] = intraduodenal lipid, high dose 1.2 pmol·kg−1·min−1 iv.
[8] = intraduodenal lipid, low dose 0.4 pmol·kg−1·min−1 iv.
[9] = intraduodenal saline, high dose 1.2 pmol·kg−1·min−1 iv.
[10] = intraduodenal saline, low dose 0.4 pmol·kg−1·min−1 iv.
[11] = low dose GLP-1, interdigestive state
[12] = low dose GLP-1, interdigestive, duodenal saline

## CC[C@H](C)[C@H](NC(=O)[C@H](Cc1ccccc1)NC(=O)[C@H](CCC(=O)O)NC(=O)[C@H](CCCCN)NC(=O)[C@H](C)NC(=O)[C@H](C)NC(=O)[C@H](CCC(N)=O)NC(=O)CNC(=O)[C@H](CCC(=O)O)NC(=O)[C@H](CC(C)C)NC(=O)[C@H](Cc1ccc(O)cc1)NC(=O)[C@H](CO)NC(=O)[C@H](CO)NC(=O)[C@@H](NC(=O)[C@H](CC(=O)O)NC(=O)[C@H](CO)NC(=O)[C@@H](NC(=O)[C@H](Cc1ccccc1)NC(=O)[C@@H](NC(=O)CNC(=O)[C@H](CCC(=O)O)NC(=O)[C@H](C)NC(=O)[C@@H](N)Cc1c[nH]cn1)[C@@H](C)O)[C@@H](C)O)C(C)C)C(=O)N[C@@H](C)C(=O)N[C@@H](Cc1c[nH]c2ccccc12)C(=O)N[C@@H](CC(C)C)C(=O)N[C@H](C(=O)N[C@@H](CCCCN)C(=O)NCC(=O)N[C@@H](CCCNC(=N)N)C(N)=O)C(C)C [GLP-1, glucagon-like peptide-1(7-36)amide]
[1]; [7]
  Glucagon (AUC over basal): 48.0 ± 33.8*‡∥ pg/ml · 60 min
[1]; [8]
  Glucagon (AUC over basal): 99.7 ± 25.1*∥ pg/ml · 60 min
[1]; [9]
  Glucagon (AUC over basal): −68.6 ± 28.9 pg/ml · 60 min
[1]; [10]
  Glucagon (AUC over basal): −59.0 ± 37.1 pg/ml · 60 min
[2]; GLP-1 infusion in conjunction with lipid perfusion
  Subjects with duodenal phases III: two out of 11
[2]; high dose GLP-1, interdigestive state
  Volunteers with duodenal phase III: five
[2]; [7]
  Pyloric Motility IPPW: 15.5 ± 2.1 number/10 min
  Pyloric tone: 8.6 ± 1.0 mmHg
[2]; [8]
  Pyloric Motility IPPW: 15.7 ± 2.5 number/10 min
  Pyloric tone: 7.4 ± 1.0 mmHg
[2]; [9]
  Pyloric Motility IPPW: 8.6 ± 1.3 number/10 min
  Pyloric tone: 7.3 ± 1.5 mmHg
[2]; [10]
  Pyloric Motility IPPW: 10.1 ± 1.9 number/10 min
  Pyloric tone: 5.3 ± 0.9 mmHg
[2]; [11]
  Time until increase of pyloric tone was fully established: ≤ 20 min
  Time until increase of pyloric tone was significant: ≤ 10 min
  Volunteers with duodenal phase III: seven out of 11
[3]; high dose GLP-1
  Nadir of plasma glucose: 3.64 ± 0.14 mmol/L
[3]; [7]
  Plasma glucose (AUC over basal): −4.5 ± 0.7*∥ mmol/l · 60 min
[3]; [8]
  Plasma glucose (AUC over basal): −4.7 ± 0.5*∥ mmol/l · 60 min
[3]; [9]
  Plasma glucose (AUC over basal): −2.5 ± 0.4 mmol/l · 60 min
[3]; [10]
  Plasma glucose (AUC over basal): −2.3 ± 0.3 mmol/l · 60 min
[3]; low dose GLP-1
  Nadir of plasma glucose: 3.58 ± 0.12 mmol/L
[4]; [7]
  Antral Amplitude: 23.0 ± 2.7 mmHg
  Antral Motility Index: 628 ± 249 mmHg*s/60 min
  Duodenal Amplitude: 19.2 ± 3.1 mmHg
  Duodenal Motility Index: 1174 ± 499 mmHg*s/60 min
  Duodenal Motility Contractions: 16.6 ± 5.9 number / 60 min
  Antral Motility Contractions: 9.2 ± 2.9 number / 60 min
[4]; [8]
  Antral Amplitude: 23.6 ± 3.1 mmHg
  Antral Motility Index: 880 ± 351 mmHg*s/60 min
  Duodenal Amplitude: 26.0 ± 3.3 mmHg
  Duodenal Motility Index: 2776 ± 890 mmHg*s/60 min
  Duodenal Motility Contractions: 29.5 ± 5.8 number / 60 min
  Antral Motility Contractions: 12.1 ± 4.1 number / 60 min
[4]; [9]
  Antral Amplitude: 21.1 ± 3.1 mmHg
  Antral Motility Index: 957 ± 322 mmHg*s/60 min
  Antro-Pyloro-Duodenal Propagated Contractions: 0.0* number/60 min
  Duodenal Amplitude: 17.5 ± 1.9 mmHg
  Duodenal Motility Index: 1119 ± 226 mmHg*s/60 min
  Duodenal Motility Contractions: 16.6 ± 3.9 number / 60 min
  Antral Motility Contractions: 9.6 ± 2.8 number / 60 min
[4]; [10]
  Antral Amplitude: 31.1 ± 3.1 mmHg
  Antral Motility Index: 1478 ± 564 mmHg*s/60 min
  Antro-Pyloro-Duodenal Propagated Contractions: 0.0* number/60 min
  Duodenal Amplitude: 25.0 ± 2.5 mmHg
  Duodenal Motility Index: 3447 ± 1624 mmHg*s/60 min
  Duodenal Motility Contractions: 36.0 ± 14.7 number / 60 min
  Antral Motility Contractions: 12.6 ± 2.8 number / 60 min
[4]; [12]
  Onset of inhibition of antro-duodenal motility after starting GLP-1: ≤ 2 min
  Time to nearly complete inhibition of antro-duodenal motility: ≤ 20 min
[5]; [7]
  Insulin (AUC over basal): 31.4 ± 8.4∥ mU/l · 60 min
[5]; [8]
  Insulin (AUC over basal): 24.7 ± 4.8∥ mU/l · 60 min
[5]; [9]
  Insulin (AUC over basal): 11.9 ± 5.1 mU/l · 60 min
[5]; [10]
  Insulin (AUC over basal): 11.3 ± 2.4 mU/l · 60 min
[6]; [7]
  Pancreatic polypeptide (AUC over basal): −104.2 ± 71.1 pg/ml · 60 min
[6]; [8]
  Pancreatic polypeptide (AUC over basal): 7.7 ± 55.4*∥ pg/ml · 60 min
[6]; [9]
  Pancreatic polypeptide (AUC over basal): −128.9 ± 33.2 pg/ml · 60 min
[6]; [10]
  Pancreatic polypeptide (AUC over basal): −90.5 ± 32.7 pg/ml · 60 min
